Drawing on patent US8436171B2, “Amino substituted pyrazines as inhibitors or protein kinases” (Akinion Pharmaceuticals AB, priority 2008, dated 2013), this text covers IC50 and EC50 for three compounds.

Structures can show the parent of a compound that is named as a salt.

The target of experiment [1] is T1, recombinant human FLT3 (Homo sapiens, UniProt P36888).
T1 construct: N-terminal GST tagged, amino acids 564-end; GST (N); purchased Upstate 14-500
T1 sequence (P36888 564-993 limits assumed): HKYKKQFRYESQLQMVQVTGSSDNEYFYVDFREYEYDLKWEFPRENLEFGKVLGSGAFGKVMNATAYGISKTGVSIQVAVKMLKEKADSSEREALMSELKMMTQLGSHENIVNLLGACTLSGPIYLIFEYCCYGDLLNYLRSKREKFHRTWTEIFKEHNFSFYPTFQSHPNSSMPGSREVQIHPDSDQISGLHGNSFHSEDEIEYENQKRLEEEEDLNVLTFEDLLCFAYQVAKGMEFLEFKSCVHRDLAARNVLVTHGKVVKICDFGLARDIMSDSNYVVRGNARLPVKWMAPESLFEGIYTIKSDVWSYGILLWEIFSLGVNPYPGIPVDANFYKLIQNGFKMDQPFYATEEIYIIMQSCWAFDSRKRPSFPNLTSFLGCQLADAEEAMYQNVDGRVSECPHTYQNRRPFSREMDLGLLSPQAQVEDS
The experiment in a line: In vitro FLT3 kinase assay (IMAP fluorescence polarization). It is filed as biochemical. The following applies: mean, n = 4-8; ATP 100 μM; FAM-CSKtide 100 nM; read-out: IC50 (nM), typical mean IC50 values determined in the FLT3 kinase assay. How it is done:
The compounds according to the invention were evaluated for their inhibition of FLT3 by the following method:
In Vitro FLT3 Kinase Assay
An enzyme inhibition assay for the tyrosine kinase domain of FLT3 was established using a fluorescence polarization technique, Immobilized Metal Ion Affinity-Based Fluorescence Polarization (IMAP) from Molecular Devices.
Briefly: kinase activity is measured by incubating a fluorescent peptide substrate with the kinase domain. After completion of the kinase reaction a binding buffer is added. Upon phosphorylation of the substrate, the fluorescent peptide gains the ability to bind to a metal-coated nanoparticle. When the substrate is bound to the nanoparticle, the rotational is speed of the peptide is reduced, and thus the fluorescence polarization (fp) becomes high. Compounds inhibiting the kinase activity of the enzyme will result in a low degree of phosphorylated substrate and a low fp-signal.
IMAP Buffer kit with Progressive Binding System (Molecular Devices, #R8124): Reaction buffer: 10 mM Tris-HCL pH 7.2 with 10 mM MgCl2, 0.05% NaN3 and 0.01% Tween 20. Prior to use DTT was added to 1 mM DTT final concentration (complete reaction buffer).
Binding solution was prepared from buffer kit according to the manufactures recommendations. Binding Reagent was diluted 1:1500 in 40% Binding buffer A and 60% Binding buffer B.
FLT3 enzyme used was recombinant human FLT3 from Upstate (#14-500) 7.2 U/ml, N-terminal GST tagged, amino acids 564-end.
Substrate peptide used: FAM-CSKtide from Molecular Devices (#R7269) 20 μM, 5FAM-KKKKEEIYFFFG-NH2. […]
• Pipette into 96-well black ½ area plate: • 5 μl compound dilution or vehicle • 5 μl substrate peptide (400 nM) • 5 μl enzyme (0.05 U/ml) or complete reaction buffer for non specific background (NSB) • 5 μl ATP (400 μM) • Cover the plate and incubate at room temperature with gentle agitation II. […] Fluorescence Polarization analysis: • Measure fluorescein using a plate reader (Analyst AD) excitation wave length 485 and emission wave length 530, reading with integration time of 0.1 sec. […]
In general terms: Fluorescence polarisation rises when a labelled molecule tumbles more slowly, as on binding a larger partner.

The test system of experiment [2] is AML cell-line MV4-11 (FLT3-ITD). The experiment in a line: Viability and proliferation assay in AML cell line MV4-11. To be noted: Homo sapiens; MV4-11 cells, 72 hours, viable cells by flow cytometry; read-out: Cell data MV4-11 (nM), EC50 values determined in AML-cell line. It is filed as cell-based. Here is the method:
AML cell-line MV4-11 carries the FLT3-internal tandem duplication. This cell-line has been widely used for evaluating the effect of FLT3-kinase inhibitors on viability and proliferation.
Briefly, cells are seeded at a low density into 96-well plates. Serial dilution of compounds is added and the cells are incubated for 72 hours. Total number of viable cells is measured using flow cytometry at the end of treatment, and the effect of the compounds is calculated as % inhibition compared to vehicle treated cells.
All cells were cultured under standard cell culture conditions, at 37° Celsius in an atmosphere of 5% CO2 in 90% humidity.
AML-cell line MV4-11 was cultured in DMEM Glutamax high glucose ([…] glucose) supplemented with 10% Fetal Bovine Serum (FBS) from Invitrogen. Cells were subcultured twice weakly, growing to a density of approx 2 million cells per ml prior to subcultivation.
For viability determination, 3000-5000 cells were seeded in 50 microliter culture medium into a 96-well plate. Serial dilutions 1:3 of compounds from 10 mM DMSO stock were made in serumfree culture medium supplemented with penicillin and streptomycin. 50 microliter of the serial dilutions were added to the cell-suspension. The final concentration of compounds was from 5 micromolar to 0.8 nM, or from 500 nM to 0.08 nM respectively. The DMSO concentration was kept constant at 0.05%.
At the end of the treatment, 100 microliter viability reagent (Guava ViaCount) was added to each well and number of cells and viability was determined using flow cytometry (Guava 96-well ViaCount assay). Typically the vehicle treated (0.05% DMSO) cell-line cells had doubled three times during the experiment.
% Survival was calculated compared to the vehicle treated cells at the end of experiment. EC50 values were determined using the equation (A+((B−A)/(1+((C/x)^D)))) where A equals min, B equals max, C equals EC50 and D equals Hill slope.
(In flow cytometry, cells or beads pass a laser one at a time.)

Consider `Nc1ncc(-c2ccncc2)nc1NCCc1c[nH]c2ccccc12` [Example 15, N3-[2-(1H-Indol-3-yl)ethyl]-5-pyridin-4-ylpyrazine-2,3-diamine, trifluoroacetate], for which the IC50 (as a rule, the concentration that gives 50% inhibition) in experiment [1] is 60 nM. Moreover, in experiment [2], the EC50 (in general, the concentration at which the effect is half-maximal) amounted to 184 nM.

As for `NC(=O)c1ccc(-c2cncc(N[C@H]3CC[C@H](O)CC3)n2)cc1` [Example 28, 4-{6-[(trans-4-Hydroxycyclohexyl)amino]pyrazin-2-yl}benzamide, trifluoroacetate], the IC50 in experiment [1] stood at 159 nM. Besides, the EC50 in experiment [2] is 178 nM.

With `c1cc(-c2cncc(Nc3ccc4cc[nH]c4c3)n2)ccn1` [Example 32, N-(6-Pyridin-4-ylpyrazin-2-yl)-1H-indol-6-amine], in experiment [1], the IC50 is 560 nM. The EC50 in experiment [2] worked out at 373 nM.
